pIC50: −log10 of the molar value.
Target: T1, α4β7 integrin (Homo sapiens, UniProt P13612+P26010)
T1 construct: a cell line RPMI-8866, which is known to express α4β7 integrin; endogenous in cells; host or cells: RPMI-8866 (human B cell line)
T1 sequence (P13612 34-1032): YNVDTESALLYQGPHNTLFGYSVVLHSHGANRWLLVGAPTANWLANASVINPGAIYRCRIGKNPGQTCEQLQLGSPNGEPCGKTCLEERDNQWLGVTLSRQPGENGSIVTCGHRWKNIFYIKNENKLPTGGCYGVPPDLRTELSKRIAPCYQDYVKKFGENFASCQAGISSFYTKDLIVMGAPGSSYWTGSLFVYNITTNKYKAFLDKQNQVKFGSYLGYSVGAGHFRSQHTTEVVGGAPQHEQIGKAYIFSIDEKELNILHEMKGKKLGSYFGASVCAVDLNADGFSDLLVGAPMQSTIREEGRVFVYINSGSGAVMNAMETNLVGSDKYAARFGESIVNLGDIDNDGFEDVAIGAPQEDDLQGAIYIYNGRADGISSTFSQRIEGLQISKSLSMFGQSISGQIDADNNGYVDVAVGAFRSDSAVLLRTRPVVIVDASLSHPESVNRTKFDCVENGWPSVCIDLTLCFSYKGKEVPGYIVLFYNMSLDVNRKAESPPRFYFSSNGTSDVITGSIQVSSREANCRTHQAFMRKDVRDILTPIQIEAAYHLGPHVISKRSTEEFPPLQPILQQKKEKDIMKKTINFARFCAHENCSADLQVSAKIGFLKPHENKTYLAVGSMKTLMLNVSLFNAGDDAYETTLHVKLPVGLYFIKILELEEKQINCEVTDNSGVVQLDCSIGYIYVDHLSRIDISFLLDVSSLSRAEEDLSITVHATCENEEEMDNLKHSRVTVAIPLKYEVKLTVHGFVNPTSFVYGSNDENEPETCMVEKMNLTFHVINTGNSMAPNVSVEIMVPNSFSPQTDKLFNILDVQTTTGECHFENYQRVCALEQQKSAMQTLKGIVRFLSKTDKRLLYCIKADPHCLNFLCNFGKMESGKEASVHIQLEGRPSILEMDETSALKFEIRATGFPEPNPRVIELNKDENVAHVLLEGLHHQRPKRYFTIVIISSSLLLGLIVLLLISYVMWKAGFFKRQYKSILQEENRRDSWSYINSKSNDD
T1 sequence (P26010 20-798): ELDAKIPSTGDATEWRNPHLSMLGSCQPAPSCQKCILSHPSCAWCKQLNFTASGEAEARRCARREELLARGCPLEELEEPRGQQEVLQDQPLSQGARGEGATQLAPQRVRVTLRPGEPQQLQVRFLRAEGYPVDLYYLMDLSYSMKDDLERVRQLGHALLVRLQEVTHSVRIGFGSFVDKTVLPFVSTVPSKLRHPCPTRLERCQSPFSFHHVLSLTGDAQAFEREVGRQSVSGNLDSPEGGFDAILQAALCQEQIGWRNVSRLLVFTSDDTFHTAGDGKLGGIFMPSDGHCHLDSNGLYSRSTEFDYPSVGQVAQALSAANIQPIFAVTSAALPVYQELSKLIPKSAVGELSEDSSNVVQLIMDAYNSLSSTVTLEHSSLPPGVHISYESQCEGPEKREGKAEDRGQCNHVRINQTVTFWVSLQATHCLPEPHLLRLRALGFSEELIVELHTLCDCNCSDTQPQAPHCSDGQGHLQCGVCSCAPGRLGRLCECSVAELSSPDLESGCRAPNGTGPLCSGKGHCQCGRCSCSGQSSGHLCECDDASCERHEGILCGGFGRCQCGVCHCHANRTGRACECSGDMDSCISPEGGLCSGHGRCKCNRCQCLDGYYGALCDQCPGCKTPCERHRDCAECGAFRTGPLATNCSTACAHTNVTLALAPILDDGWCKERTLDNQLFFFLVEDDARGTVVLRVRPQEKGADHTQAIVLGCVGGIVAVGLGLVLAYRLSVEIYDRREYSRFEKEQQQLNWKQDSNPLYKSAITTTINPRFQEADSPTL
Test: MAdCAM-1/α4β7 integrin binding inhibitory activity evaluation test (RPMI-8866 cells binding to MAdCAM-1/Fc)
Type: cell-based
Conditions: recombinant mouse MAdCAM-1/Fc, no serum
In short: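 Human B-cell line RPMI-8866 (α4β7+) allowed to adhere to plates coated with recombinant mouse MAdCAM-1/Fc (0.75 μg/mL) in DMEM/HEPES/BSA with 4 mM MnCl2, 15–60 min at 30° C, with test compound. Bound cells quantified by LDH activity after lysis (A490); IC50 derived from binding relative to no-compound wells.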

pIC50 | SMILES
9.38 | Cn1cnc2c1c(=O)n(-c1ccc(C[C@H](NC(=O)c3cc(F)c(NS(=O)(=O)c4ccc(NC(=O)C(C)(C)C)cc4)cc3F)C(=O)O)cc1)c(=O)n2C [Compound A43]
8.16 | CCC(CC)C(=O)Nc1ccc(S(=O)(=O)Nc2cc(F)c(C(=O)N[C@@H](Cc3ccc(-n4c(=O)ccn(C)c4=O)nc3)C(=O)O)cc2F)cc1 [Compound A61]
9.15 | Cn1c2c(c(=O)n(-c3ccc(C[C@H](NC(=O)c4cc(F)c(NS(=O)(=O)c5ccc(NC(=O)C(C)(C)C)cc5)cc4F)C(=O)O)cn3)c1=O)CCCC2 [Compound A52]
8.51 | Cc1c(CO)c(=O)n(-c2ccc(C[C@H](NC(=O)c3cc(F)c(NS(=O)(=O)c4ccc(NC(=O)C(C)(C)C)cc4)cc3F)C(=O)O)cc2)c(=O)n1C [Compound A51]
8.70 | Cc1cn(C)c(=O)n(-c2ccc(C[C@H](NC(=O)c3cc(F)c(NS(=O)(=O)c4cc5cc(NC(=O)C(C)(C)C)ccc5[nH]4)cc3F)C(=O)O)cn2)c1=O [Compound A76]
8.70 | Cn1ccc(=O)n(-c2ccc(C[C@H](NC(=O)c3cc(F)c(NS(=O)(=O)c4ccc(NC(=O)C(C)(C)C(F)(F)F)cc4)cc3F)C(=O)O)cn2)c1=O [Compound A57]
8.80 | Cc1cc(=O)n(-c2ccc(C[C@H](NC(=O)c3cc(F)c(NS(=O)(=O)c4ccc(NC(=O)C(C)(C)C)cc4)cc3F)C(=O)O)cn2)c(=O)n1C [Compound A45]
9.42 | Cn1c(=O)n(-c2ccc(C[C@H](NC(=O)c3cc(F)c(NS(=O)(=O)c4ccc(NC(=O)C5CCOCC5)cc4)cc3F)C(=O)O)cc2)c(=O)c2ccncc21 [Compound A14]
8.96 | Cc1c(C)n(C)c(=O)n(-c2ccc(C[C@H](NC(=O)c3cc(F)c(NS(=O)(=O)c4ccc(NC(=O)C(C)(C)C)nc4)cc3F)C(=O)O)cc2)c1=O [Compound A25]
